The text below walks through data of patent US8729107B2, “Pyridines for treating injured mammalian nerve tissue” (Purdue Research Foundation, priority 2002, dated 2014).

Data set [1] concerns guinea pigs with compression injury to the mid-thoracic spinal cord. It is filed as in vivo. The note with it: for failures to respond: by 4 hours after gavage; for tolerability of gavage: oral insertion in sedated guinea pigs; for effective dosage producing improvement in the electrophysiological record: gavage; for Mean recovered EP (area beneath recovered EP normalized to pre-injury): gavage at 1 week post injury, Table 1. The source says:
“Somatosensory evoked potential testing (SSEP)” is a means of measuring ascending nerve impulse “traffic” in a “whole” animal. […] These volleys of evoked potentials are initiated by electrical stimulation of the tibial nerve of the hind leg of an animal, which induces ascending sensory volleys of nociceptive impulses to the contralateral sensory cortex of the brain in the intact animal. A severe spinal cord injury eliminates the ability of evoked potentials to cross the lesion and thus SSEPs are not recorded at the brain after lesioning. Quantitative evaluation of the recovery of SSEP conduction through the whole animal provides a more relevant indicator of the feasibility of these compounds to be useful in reversing behavioral loss after specific, localized, and standardized CNS injury. To eliminate the possibility that the failure to record SSEPs could be due to other factors, a control recording is carried out using the median nerve of the foreleg. Since this neural circuit is completely intact (that is—“above” the level of the spinal injury) normal SSEPs must be obtained after such “control” stimulation. FIG. 2 is a diagram of this testing protocol and provides examples of normal recordings in intact animals, the elimination of sensory impulses after a mid-thoracic spinal cord injury, and explains these issues in detail, as well as, emphasizing the importance of a median nerve control procedure.
During live animal testing using guinea pigs, novel pyridine derivatives of the instant invention were administered through a gastric tube to large adult guinea pigs which had previously received a standardized compression injury to their mid-thoracic spinal cords. The ability of these compounds to restore conduction in this second technique was determined by a quantitative evaluation of SSEPs. The following protocols and routes of administration were employed.
Prior to spinal cord injury, fully adult guinea pigs (Hardy strain, around 400 g) were lightly sedated with an intramuscular injection of Ketamine/Rompum and rendered immobile during the placement of stimulation and recording electrodes as illustrated in FIG. 2. A series of SSEP records were then taken subsequent to both tibial and median nerve stimulation in this normal animal. It should be noted here that all surgical procedures and physiological recordings were carried out on anesthetized animals. All animal studies were carried out under protocols approved by the University Animal Care and Use Committee, under strict adherence to University, State, and Federal guidelines for the use of animals in research.
Subsequently, a dorsal laminectomy surgical procedure was carried out exposing the dorsal (posterior) region of the mid-thoracic spinal cord within the vertebral column, the tough covering of the spinal cord (the dura) incised and removed, and the cord crushed by a standardized technique (constant displacement compression. Blight A R (1991a), Morphometric analysis of a model of spinal cord injury in guinea pigs, with behavioral evidence of delayed secondary pathology, J Neurol Sci 103:156-171; Borgens R B, Shi R, Bohnert D (2002), Behavioral recovery from spinal cord injury following delayed application of polyethylene glycol, J Exp Biol 205:1-12, both incorporated herein by reference.
[…] However, periodically physiological records were taken to monitor their status—and a final record at around 2 months post injury to confirm the chronic loss of ascending SSEP conduction through the mid-thoracic lesion.
After 8 weeks had elapsed and a “pre-drug application” electrical record obtained, the guinea pigs were lightly sedated and a test compound was administered directly into the stomach by a gastric tube (compounds were undissolved during introduction to the stomach, however, the gastric tube and any remnants of the compounds were flushed into the stomach by secondary introduction of less than 1 ml of distilled water). […]

Data set [2] deals with injured guinea pig spinal cord white matter. The note with it: for CAP relative to pre-drug level: at the concentrations studied; for concentration producing recovery of CAP conduction (effective/working concentration): drug added to bathing medium of central chamber; for increase in the amplitude of the recovered CAP: pre-drug recovered CAP normalized to 100%; for CAP amplitude after removal of the drug and wash: FIG. 8 electrical records, after washout.

Data set [3] concerns paralyzed persons with spinal cord injury. The following applies: cited from earlier work.
Data set [4] deals with fast potassium channels (IA) in guinea pig DRG cells. As to the kind of experiment: Whole cell patch-clamp recording of voltage-gated potassium currents (Itotal, fast component IA). In kind it is cell-based. The note with it: for effect on fast potassium current (initial peak of Itotal): 5 mM in bath solution; for peak (fast activated) potassium current amplitude after treatment: 5 mM in bath, command potential +30 mV.

Data set [5] concerns delayed rectifier current Idr in guinea pig DRG cells. As to the kind of experiment: Whole cell patch-clamp recording of isolated delayed rectifier current. The note with it: depolarization holding potential; data not shown. In kind it is cell-based.

Read-outs that look alike come from different tables or passages of the source.

As for `CC(C)(C)OC(=O)Nc1ccncc1` [t-butyl carbamate (1), N-(4-Pyridyl) t-Butyl Carbamate], the “recovery of EP compared to 4-AP” value in data set [1] (1 week post injury) was “significantly enhanced”. In data set [1], the failures to respond result is “no failures to respond” and the tolerability of gavage entry is listed as “not tolerated”. Also, in data set [2], the indication of toxicity result is reported as “without any indication of toxicity”, the “CAP relative to pre-drug level” value is reported as “increase in CAP above the pre-drug level” and the “concentration producing recovery of CAP conduction (effective/working concentration)” value amounted to 1 µM. In addition, the “enhancement of CAP conduction” value in data set [2] (1 uM) is “enhance CAP conduction significantly”. Also, in data set [2] (printed 'at uM', n=5, relative to pre-drug CAP), the “increase in recovery CAP amplitude” value is on record as 15.4±3.4%.
Take `Nc1ccncc1` [4-AP, 4-aminopyridine, reference compound]: the “side effects at the concentrations required” value in data set [3] (human patients) is on record as “numerous unwanted side effects”. Also, the “share of treated population with clinically meaningful recoveries of function” value in data set [3] (paralyzed persons) is “about 30%”. Further, in data set [4], the “effect on fast potassium current (initial peak of Itotal)” value is “largely blocked” and the “peak (fast activated) potassium current amplitude after treatment” value is recorded as 2,574.91±446.8 pA. Besides, in data set [1], the failures to respond entry was “Two of the ten animals failed to respond”, the “effective dosage producing improvement in the electrophysiological record” value is reported as 0.47±0.04 mg/kg, the “Mean recovered EP (area beneath recovered EP normalized to pre-injury)” value was found to be 40.0 and the tolerability of gavage result is listed as “uneventful”. For the same compound, the “inhibition of Idr” value in data set [5] is given as “did not significantly inhibit”. The “concentration producing recovery of CAP conduction (effective/working concentration)” value in data set [2] was 100 µM.
For `COC(=O)Nc1ccncc1` [methyl carbamate (3), N-(4-Pyridyl)Methyl Carbamate], the “cortical potential (P1) after administration” value in data set [1] (FIG. 3, 1 hour after gastric tube administration, 1 week post injury) was “nearly normal cortical potential”. For the same compound, in data set [1], the “effective dosage producing improvement in the electrophysiological record” value was 0.37±0.2 mg/kg, the “Mean recovered EP (area beneath recovered EP normalized to pre-injury)” value stood at 78.0 and the tolerability of gavage entry is listed as “uneventful”. Besides, in data set [2] (100 uM), the “enhancement of CAP conduction” value was “enhanced CAP conduction significantly” and the “increase in the amplitude of the recovered CAP” value came out at 30.6±11.7%. Further, in data set [2], the “CAP amplitude after removal of the drug and wash” value was “approximate pre-drug levels”. Also, the “concentration producing recovery of CAP conduction (effective/working concentration)” value in data set [2] (listed as Methyl carbamate (3)) was “approximately 100 uM”. Also, the “concentration producing recovery of CAP conduction (effective/working concentration)” value in data set [2] (listed as carbamate (3)) turned out to be 100 µM.
With `CCOC(=O)Nc1ccncc1` [ethyl carbamate (2), N-(4-Pyridyl)Ethyl Carbamate], in data set [1] (1 week post injury), the “recovery of EP compared to 4-AP” value is given as “did not meet significance”. In data set [1], the failures to respond result is listed as “no failures to respond”, the “Mean recovered EP (area beneath recovered EP normalized to pre-injury)” value is 41.5 and the tolerability of gavage result is “uneventful”. Further, in data set [2], the indication of toxicity result is given as “without any indication of toxicity”; the “CAP amplitude after removal of the drug and wash” value was “fallen back to pre-drug levels”; the “CAP relative to pre-drug level” value is given as “increase in CAP above the pre-drug level”; the “concentration producing recovery of CAP conduction (effective/working concentration)” value is given as “approximately 100 uM”. In data set [2] (100 uM), the “enhancement of CAP conduction” value is “enhanced CAP conduction significantly”, the “recovery of CAP relative to 4-AP” value is “slightly lower recovery of CAP than 4-AP” and the “increase in the amplitude of the recovered CAP” value is 18.6±8.7%. In addition, the “increase in the amplitude of the CAP in example electrical record” value in data set [2] (FIG. 8 panel A, about 1/2 hour after addition) was roughly 20%. Besides, the “concentration producing recovery of CAP conduction (effective/working concentration)” value in data set [2] (listed as carbamate (2)) was 100 µM.
As to `Nc1ccncc1CO` [4-AP-3-MeOH, 4-aminopyridine-3-methanol], the “effect on fast potassium current (initial peak of Itotal)” value in data set [4] is “inhibit the fast potassium currents”. In addition, the “peak (fast activated) potassium current amplitude after treatment” value in data set [4] is given as 2,434.20±543.4 pA. Moreover, in data set [4] (step voltage commands from −50 to 40 mV), the “effect on IA over step voltage commands” value was “suppresses IA”. For the same compound, in data set [5], the “inhibition of Idr” value is given as “did not significantly inhibit”. Also, the “increase of CAP conduction (not significant)” value turned out to be 6.44±3.8% in data set [2] (0.01 μM, stretch-injured cord, mean±SE, n=5) and 6.72±8.3% in data set [2] (1 mM, stretch-injured cord, mean±SE, n=5). In addition, the “increase of CAP conduction” value in data set [2] (0.1 μM, stretch-injured cord, mean±SE, n=7) was 12.73±3.2%; in data set [2] (1 μM, stretch-injured cord, mean±SE, n=6) it was 11.27±4.2%; in data set [2] (10 μM, stretch-injured cord, mean±SE, n=11), 13.35±5.9%; in data set [2] (100 μM, stretch-injured cord, mean±SE, n=6) it was 21.51±4.5%. Moreover, in data set [2] (100 μM, stimulus intensities 1.85 to 6.5 V), the “effect on CAP activation threshold” value is on record as “does not have a significant effect”. In data set [2] (100 μM, stimulus intensities 1.85 to 6.5 V, data not shown), the “CAP conduction across stimulus intensities” value is on record as “increased CAP conduction at all stimuli intensity levels”. Further, the “suppression of CAP conduction” value in data set [2] (10 mM, stretch-injured cord, mean±SE, n=5) was determined as 18.48±8.1%. Besides, the “effect on axonal response to dual or multiple stimuli” value in data set [2] (injured spinal cord tissue) is recorded as “does not have a significant effect”.
